{"source": "paper PMC10741037", "about": "“A Peptoid-Chelator Selective to Cu^2+ That Can Extract Copper from Metallothionein-2 and Lead to the Production of ROS” (Antioxidants, 2023)", "test": "Kinetics of ascorbate consumption assay (ROS production)", "format": "biochemical", "conditions": "MT-2 + Cu2+ + Asc; [MT-2] = 1.6 μM, [Cu2+] = 9 μM, [Asc] = 100 μM, HEPES 10 mM pH = 7.4, absorbance at 265 nm", "method": "Reagents, except the peptoid and protein, were commercially available and were used as received. All the solutions were prepared in milliQ water (resistance: 18.2 MΩ) immediately before experiments. A stock solution of HEPES buffer was prepared at 500 mm, pH = 7.4, and then diluted to 10 mM. Sodium ascorbate was prepared at 5 mm each day because of the quick degradation of the ascorbate. All pH values are given with a ±0.2 pH unit error. UV/Vis kinetics and ROS kinetic experiments were recorded with a spectrophotometer Agilent Cary 60 UV/Vis spectrophotometer (Agilent Technologies, Mulgrave, Australia), a double-beam, Czerny–Turner monochromator with external stirrer of cuvette holder, in 1 cm path-length quartz cuvettes, with 800 rpm stirring. The samples were prepared from stock solutions of MT-2, TB, Cu^2+, diluted to 1.6, 10, and 9 µM, respectively, in 10 mM HEPES solution, pH = 7.4. Ascorbate was diluted to 100 µM. […]\nFirst, we investigated whether CuTB can produce ROS by itself. In a typical experiment, 1 equiv. of TB was mixed with 0.9 equiv. of Cu^2+ in HEPES buffer (10 mM, pH = 7.4) in a quartz cuvette under aerobic conditions, and after the formation of the metallopeptoid was confirmed by the stability of its UV/Vis spectrum, sodium ascorbate (Asc) was added to the cuvette and the changes in the absorbance at 265 nm were monitored by UV/Vis (ε = 14,500 M^−1 cm^−1). […]"}
{"substance": "CuMT-2: complex of metallothionein-2 (MT-2) with 6 equiv. of Cu2+", "values": [{"measurement": "ascorbate consumption / redox activity", "value": "redox silent"}]}
